One assay concerns the target Acetylcholinesterase (Electrophorus electricus, UniProt O42275). The note with it: read-out: IC50.
Cholinesterase, sequence (P81908 whole entry): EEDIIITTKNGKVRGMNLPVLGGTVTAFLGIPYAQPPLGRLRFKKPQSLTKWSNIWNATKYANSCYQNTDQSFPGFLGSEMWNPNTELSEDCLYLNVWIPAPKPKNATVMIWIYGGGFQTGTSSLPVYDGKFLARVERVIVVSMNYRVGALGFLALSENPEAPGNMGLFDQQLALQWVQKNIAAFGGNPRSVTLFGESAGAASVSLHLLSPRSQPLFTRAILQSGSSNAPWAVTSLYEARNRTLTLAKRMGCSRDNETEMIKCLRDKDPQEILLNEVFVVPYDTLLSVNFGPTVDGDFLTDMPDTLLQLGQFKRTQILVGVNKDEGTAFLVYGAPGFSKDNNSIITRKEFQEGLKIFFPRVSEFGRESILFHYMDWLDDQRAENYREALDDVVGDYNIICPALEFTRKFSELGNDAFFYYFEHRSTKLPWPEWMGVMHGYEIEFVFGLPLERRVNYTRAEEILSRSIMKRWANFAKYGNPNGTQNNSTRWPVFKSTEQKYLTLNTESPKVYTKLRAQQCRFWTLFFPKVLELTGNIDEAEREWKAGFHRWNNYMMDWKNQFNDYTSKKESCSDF
Acetylcholinesterase, sequence (O42275 whole entry): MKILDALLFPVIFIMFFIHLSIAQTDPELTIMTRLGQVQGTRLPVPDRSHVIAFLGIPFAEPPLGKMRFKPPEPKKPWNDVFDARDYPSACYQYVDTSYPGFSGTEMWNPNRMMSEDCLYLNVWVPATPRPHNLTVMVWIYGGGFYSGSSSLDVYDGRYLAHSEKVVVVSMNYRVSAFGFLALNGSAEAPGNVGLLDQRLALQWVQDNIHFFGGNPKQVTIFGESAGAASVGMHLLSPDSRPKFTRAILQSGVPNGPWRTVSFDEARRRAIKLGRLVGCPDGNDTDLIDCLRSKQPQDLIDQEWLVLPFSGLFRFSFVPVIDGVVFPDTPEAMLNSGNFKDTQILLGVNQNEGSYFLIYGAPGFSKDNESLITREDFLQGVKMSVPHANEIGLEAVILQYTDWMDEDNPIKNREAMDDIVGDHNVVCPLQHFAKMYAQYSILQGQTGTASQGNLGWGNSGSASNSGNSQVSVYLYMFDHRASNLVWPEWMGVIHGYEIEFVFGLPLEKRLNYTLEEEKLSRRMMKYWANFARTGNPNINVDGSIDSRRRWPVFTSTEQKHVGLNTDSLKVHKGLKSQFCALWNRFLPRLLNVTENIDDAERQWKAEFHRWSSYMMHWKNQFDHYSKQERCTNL
Description: Inhibition of electric eel AChE by Ellman's method
`c1ccc(C/N=c2/c3ccccc3nc3n2CCCCCC3)cc1`: the IC50 is greater than 500000 nM.
For the molecule `c1ccc(C/N=c2/c3ccccc3nc3n2CCC3)cc1`, the IC50 came to 13900 nM.
As for `c1ccc2/c(=N\CCCCCCC/N=c3\c4ccccc4nc4n3CCC4)n3c(nc2c1)CCC3`, the IC50 was 79 nM.
As to `CN(CCCN=c1c2ccccc2nc2n1CCC2)CCC/N=c1\c2ccccc2nc2n1CCC2`, the IC50 came to 541 nM.
The same measure, in the same setting: the figure for `CC(=O)N(CCCN=c1c2ccccc2nc2n1CCC2)CCC/N=c1\c2ccccc2nc2n1CCC2` is 331 nM.
Same read-out and setting: under `c1ccc2c(=NCCCCCCC/N=c3\c4ccccc4nc4n3CCCCCC4)n3c(nc2c1)CCCCCC3` stands 65 nM; under `CN(CCCN=c1c2ccccc2nc2n1CCCCCC2)CCC/N=c1\c2ccccc2nc2n1CCCCCC2`, 203 nM; under `CC(=O)N(CCCN=c1c2ccccc2nc2n1CCCCCC2)CCC/N=c1\c2ccccc2nc2n1CCCCCC2`, 49 nM.
The same measure, in the same setting: under `c1ccc2c(=NCCCCCCCCN=c3c4ccccc4nc4n3CCC4)n3c(nc2c1)CCC3` stands 58 nM.
`CN(CCCCN=c1c2ccccc2nc2n1CCC2)CCCN=c1c2ccccc2nc2n1CCC2`: the IC50 came to 561 nM.
Same read-out and setting: under `CC(=O)N(CCCCN=c1c2ccccc2nc2n1CCC2)CCCN=c1c2ccccc2nc2n1CCC2` stands 20.9 nM; under `CCC(=O)N(CCCCN=c1c2ccccc2nc2n1CCC2)CCCN=c1c2ccccc2nc2n1CCC2`, 18 nM; under `C=C(C)C(=O)N(CCCCN=c1c2ccccc2nc2n1CCC2)CCCN=c1c2ccccc2nc2n1CCC2`, 6.7 nM.
Still for that read-out and setting: the figure for `c1ccc2c(=NCCCCCCCCN=c3c4ccccc4nc4n3CCCCCC4)n3c(nc2c1)CCCCCC3` is 14400 nM.
Take `CN(CCCCN=c1c2ccccc2nc2n1CCCCCC2)CCCN=c1c2ccccc2nc2n1CCCCCC2`: the IC50 turned out to be 606 nM.
In the case of `CC(=O)N(CCCCN=c1c2ccccc2nc2n1CCCCCC2)CCCN=c1c2ccccc2nc2n1CCCCCC2`, the IC50 was found to be 177 nM.
Still for that read-out and setting: the figure for `CCC(=O)N(CCCCN=c1c2ccccc2nc2n1CCCCCC2)CCCN=c1c2ccccc2nc2n1CCCCCC2` is 289 nM; for `C=C(C)C(=O)N(CCCCN=c1c2ccccc2nc2n1CCCCCC2)CCCN=c1c2ccccc2nc2n1CCCCCC2` it is 153 nM.
Turning to `CC(=O)NCC(=O)N(CCCCN=c1c2ccccc2nc2n1CCCCCC2)CCCN=c1c2ccccc2nc2n1CCCCCC2`, the IC50 came to 75.6 nM.
Take `CC(C)(C)C(=O)N(CCCCN=c1c2ccccc2nc2n1CCCCCC2)CCCN=c1c2ccccc2nc2n1CCCCCC2`: the IC50 was 536 nM.
Same read-out and setting: under `CCCCC(=O)N(CCCCN=c1c2ccccc2nc2n1CCCCCC2)CCCN=c1c2ccccc2nc2n1CCCCCC2` stands 1060 nM; under `CC(C)CC(=O)N(CCCCN=c1c2ccccc2nc2n1CCCCCC2)CCCN=c1c2ccccc2nc2n1CCCCCC2`, 621 nM.
On the same count and under the same terms, the figure for `CC(C)CCC(=O)N(CCCCN=c1c2ccccc2nc2n1CCCCCC2)CCCN=c1c2ccccc2nc2n1CCCCCC2` is 792 nM.

The assay is the same for the next values; noted with them: read-out: pIC50 (converted).
As to `CC(C)(C)C(=O)N(CCCCN=c1c2ccccc2nc2n1CCCCCC2)CCCN=c1c2ccccc2nc2n1CCCCCC2`, the IC50 was 53.6 nM.

The next assay has as its target Cholinesterase (Equus caballus, UniProt P81908).
Settings: not given
`c1ccc(C/N=c2/c3ccccc3nc3n2CCCCCC3)cc1` gave an IC50 of 1100 nM.
On the same count and under the same terms, the figure for `c1ccc(C/N=c2/c3ccccc3nc3n2CCC3)cc1` is 1900 nM; for `c1ccc2/c(=N\CCCCCCC/N=c3\c4ccccc4nc4n3CCC4)n3c(nc2c1)CCC3` it is 88 nM.
Still for that read-out and setting: the figure for `CN(CCCN=c1c2ccccc2nc2n1CCC2)CCC/N=c1\c2ccccc2nc2n1CCC2` is 547 nM; for `CC(=O)N(CCCN=c1c2ccccc2nc2n1CCC2)CCC/N=c1\c2ccccc2nc2n1CCC2` it is 267 nM; for `c1ccc2c(=NCCCCCCC/N=c3\c4ccccc4nc4n3CCCCCC4)n3c(nc2c1)CCCCCC3` it is 27 nM.
For the molecule `CN(CCCN=c1c2ccccc2nc2n1CCCCCC2)CCC/N=c1\c2ccccc2nc2n1CCCCCC2`, the IC50 came to 197 nM.
The molecule `CC(=O)N(CCCN=c1c2ccccc2nc2n1CCCCCC2)CCC/N=c1\c2ccccc2nc2n1CCCCCC2` came in with an IC50 of 72.7 nM.
For `c1ccc2c(=NCCCCCCCCN=c3c4ccccc4nc4n3CCC4)n3c(nc2c1)CCC3`, the IC50 was 4.8 nM.
The same measure, in the same setting: the figure for `CN(CCCCN=c1c2ccccc2nc2n1CCC2)CCCN=c1c2ccccc2nc2n1CCC2` is 81.3 nM; for `CC(=O)N(CCCCN=c1c2ccccc2nc2n1CCC2)CCCN=c1c2ccccc2nc2n1CCC2` it is 4 nM.
The same measure, in the same setting: the figure for `CCC(=O)N(CCCCN=c1c2ccccc2nc2n1CCC2)CCCN=c1c2ccccc2nc2n1CCC2` is 5.9 nM; for `C=C(C)C(=O)N(CCCCN=c1c2ccccc2nc2n1CCC2)CCCN=c1c2ccccc2nc2n1CCC2` it is 10.6 nM.
Same read-out and setting: the figure for `c1ccc2c(=NCCCCCCCCN=c3c4ccccc4nc4n3CCCCCC4)n3c(nc2c1)CCCCCC3` is 76 nM; for `CN(CCCCN=c1c2ccccc2nc2n1CCCCCC2)CCCN=c1c2ccccc2nc2n1CCCCCC2` it is 51.4 nM; for `CC(=O)N(CCCCN=c1c2ccccc2nc2n1CCCCCC2)CCCN=c1c2ccccc2nc2n1CCCCCC2` it is 43.1 nM.
As for `CCC(=O)N(CCCCN=c1c2ccccc2nc2n1CCCCCC2)CCCN=c1c2ccccc2nc2n1CCCCCC2`, the IC50 was 46.3 nM.
Same read-out and setting: the figure for `C=C(C)C(=O)N(CCCCN=c1c2ccccc2nc2n1CCCCCC2)CCCN=c1c2ccccc2nc2n1CCCCCC2` is 37.7 nM.
As for `CC(=O)NCC(=O)N(CCCCN=c1c2ccccc2nc2n1CCCCCC2)CCCN=c1c2ccccc2nc2n1CCCCCC2`, the IC50 stood at 122 nM.
The same measure, in the same setting: under `CC(C)(C)C(=O)N(CCCCN=c1c2ccccc2nc2n1CCCCCC2)CCCN=c1c2ccccc2nc2n1CCCCCC2` stands 25.5 nM; under `CCCCC(=O)N(CCCCN=c1c2ccccc2nc2n1CCCCCC2)CCCN=c1c2ccccc2nc2n1CCCCCC2`, 12.9 nM; under `CC(C)CC(=O)N(CCCCN=c1c2ccccc2nc2n1CCCCCC2)CCCN=c1c2ccccc2nc2n1CCCCCC2`, 8.1 nM.
In turn, `CC(C)CCC(=O)N(CCCCN=c1c2ccccc2nc2n1CCCCCC2)CCCN=c1c2ccccc2nc2n1CCCCCC2` yielded an IC50 of 3 nM.

The record behind these values is ChEMBL document CHEMBL1667814 (Bioorg Med Chem, 2011).
